Entries after “also recorded” stand apart in the source; their conditions may differ.
Columns and labels:
AmGT1 = assay: Glycosyl transferase activity of the AmGT1 cDNA recombinant protein; type: biochemical, snapdragons (Antirrhinum majus); conditions: crude extract, UDP-glucose, HPLC, as in Example 1
Procedure: (§1) To 50 μl of the crude enzyme solution were added 0.1 M Tris-HCl, pH 8.0, and 150 μl of 0.05% 2-ME, and then incubated at 30° C. for 10 minutes. Then 5 μl of 4.66 mM aureusidin and 50 μl of 5 mM UDP-glucose were added thereto, and was allowed to react at 30° C. for 1 hour. After the reaction was stopped by adding 200 μl of 90% acetonitrile containing 5% trifluoroacetic acid (TFA), it was centrifuged at 15,000 rpm and 4° C. for 3 minutes. The supernatant thus obtained was filtered (pore size 0.45 μm, 4 mm Millex-LH, Millipore) to remove insoluble substances. The filtrate was analyzed by high performance liquid chromatography.
(§2) The analytical condition was as follows: The column used was Asahipak-ODP-50 (4.6 mm φ×250 mm, Showa Denko). The mobile phase comprised water containing 0.1% TFA as solution A and 90% CH3CN containing 0.1% TFA as solution B. After a linear gradient from 20% solution B to 100% solution B for 20 minutes, 100% solution B was retained for 5 minutes. The flow rate was 0.6 ml/min. Detection used A380 nm, and an absorption spectrum at 250-400 nm using Shimadzu PDA detector SPD-M6A.
The transformant obtained in Example 4 was cultured, extracted and the enzymatic activity was measured as in Example 1.

Ph7GTb = assay: Glycosyl transferase activity of Ph7GTb cDNA recombinant protein; type: biochemical, petunia (Petunia hybrida); conditions: crude extract, UDP-glucose, HPLC, as in Example 1
Procedure: as §1, §2
(§3) The transformants obtained in Example 8 were cultured, extracted and the enzymatic activity was measured as in Example 1. The enzymatic activity was measured using aureusidin as the substrate. […]

[1] = tested on: product of the pS.b UFGT1 gene; assay: Glycosyl transferase activity of pS.b UFGT1 gene product (crude E. coli extract, UDP-glucose, HPLC); type: biochemical, Scutellaria baicalensis; conditions: crude enzyme solution, 30° C., HPLC detection of glycosides
Procedure: The activity of the pS.b UFGT1 gene derived from Scutellaria baicalensis of transferring a glycosyl group to aurones was determined using an expression vector pESBGT-1 in E. coli prepared by the following method.
The PCR product was digested with NdeI and BamHI, and then was ligated to the NdeI- and BamHI-digested pET-3a vector (Stratagene) to construct pESBGT-1 (FIG. 1). Using each of pESBGT-1 and pET-3a vector, it was transformed into Epicurian Coli BL21 (DE3) (Stratagene). The transformants were incubated overnight at 37° C. in 3 ml of a LB medium containing 50 μg/ml of ampicillin. The preculture (500 μl) was added to 50 ml of a LB medium containing 50 μg/ml of ampicillin, and cultured until A600 reached 0.6-1.0. Then isopropyl-β-D-thiogalactopyranoside (IPTG) was added thereto to a final concentration of 0.5 mM, which was cultured at 28° C. for 4 hours and centrifuged (5000 rpm, 10 minutes, 4° C.) to collect the cells.
The pellets were suspended in 5 ml of the buffer (10 mM sodium phosphate, pH 6.5, 1 mM β-mercaptoethanol (2-ME)). After the E. coli cells were disrupted by a sonicator, it was centrifuged (15,000 rpm, 5 minutes, […]), and the supernatant obtained was used as a crude enzyme solution for the next enzyme reaction.
In addition to aureusidin, the enzymatic activity was determined using naringenin or luteolin as the substrate.
To 50 μl of the crude enzyme solution were added 0.1 M Tris-HCl, pH 8.0, and 150 μl of 0.05% 2-ME, and then incubated at 30° C. for 10 minutes. Then 5 μl of 4.66 mM aureusidin and 50 μl of 5 mM UDP-glucose were added thereto, and was allowed to react at 30° C. for 1 hour. […] The filtrate was analyzed by high performance liquid chromatography. […]
To 20 μl of the crude enzyme solution were added 25 μl of 0.1 M citric acid-phosphate buffer, pH 6.5, 5 μl each of 5 μM substrate, and 25 μl of 5 mM UDP-glucose in a total volume of 250 μl, and then incubated at 30° C. for 30 minutes. […] The filtrate was analyzed by high performance liquid chromatography. […]

Ph7GTa = assay: Glycosyl transferase activity of Ph7GTa cDNA recombinant protein; type: biochemical, petunia (Petunia hybrida); conditions: crude extract, UDP-glucose, HPLC, as in Example 1
Procedure: as §1, §2, §3

[2] = tested on: product of the pS.b UFGT1 gene; conditions: substrate baicalein; cited from earlier work
[3] = target: T1, flavonoid-3-glycosyl transferase derived from gentians (Gentiana triflora, UniProt Q96493); conditions: substance used as substrate; enzyme expressed in E coli; cited from earlier work
T1 construct: host or cells: E. coli
T1 sequence (Q96493 1-453): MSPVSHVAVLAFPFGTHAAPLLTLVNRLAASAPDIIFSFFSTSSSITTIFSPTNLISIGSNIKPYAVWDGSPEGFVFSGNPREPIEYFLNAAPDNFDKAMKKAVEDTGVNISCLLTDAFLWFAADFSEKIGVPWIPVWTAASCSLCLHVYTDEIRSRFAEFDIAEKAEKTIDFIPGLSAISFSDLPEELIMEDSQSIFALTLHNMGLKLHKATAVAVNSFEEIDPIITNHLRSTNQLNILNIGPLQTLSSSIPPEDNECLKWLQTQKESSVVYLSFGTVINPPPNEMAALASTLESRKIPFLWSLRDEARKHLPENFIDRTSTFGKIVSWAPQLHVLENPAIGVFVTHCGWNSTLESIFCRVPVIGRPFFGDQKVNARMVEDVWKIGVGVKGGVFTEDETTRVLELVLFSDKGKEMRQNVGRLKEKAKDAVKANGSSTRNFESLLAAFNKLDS

[4] = target: T2, flavonoid-3-glycosyl transferase derived from grapes (Vitis vinifera, UniProt P51094); conditions: substance used as substrate; activity determined in E. coli; cited from earlier work
T2 construct: host or cells: E. coli
T2 sequence (P51094 1-456): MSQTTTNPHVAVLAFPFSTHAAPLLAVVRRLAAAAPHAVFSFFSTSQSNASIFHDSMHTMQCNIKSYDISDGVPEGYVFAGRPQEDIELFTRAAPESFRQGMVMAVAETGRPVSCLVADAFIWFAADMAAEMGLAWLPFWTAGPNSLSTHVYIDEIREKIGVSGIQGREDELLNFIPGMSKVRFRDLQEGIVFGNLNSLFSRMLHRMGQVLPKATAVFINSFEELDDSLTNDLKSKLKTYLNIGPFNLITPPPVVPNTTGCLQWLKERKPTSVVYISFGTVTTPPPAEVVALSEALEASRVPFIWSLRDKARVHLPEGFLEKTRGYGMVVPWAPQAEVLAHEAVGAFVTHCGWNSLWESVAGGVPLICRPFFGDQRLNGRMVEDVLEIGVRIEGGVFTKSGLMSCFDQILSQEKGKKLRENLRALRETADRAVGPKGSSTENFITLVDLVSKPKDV

Molecule | glycosilation of the substrate by the pS.b UFGT1 product [1] | glycosyl transferase activity relative to a 100% activity to delphinidins [3] [%] | also measured
O=C1/C(=C/c2ccc(O)c(O)c2)Oc2cc(O)cc(O)c21 [aureusidin] | can glycosilate | – | glycosyl transfer to the substrate by AmGT1 (AmGT1): can transfer a glycosyl group to the positions 6 and 4; glycosilation of the substrate by Ph7GTb (Ph7GTb): activity of glycosilating; glycosilation of the substrate by Ph7GTa (Ph7GTa): activity of glycosilating
O=c1cc(-c2ccccc2)oc2cc(O)c(O)c(O)c12 [baicalein] | – | – | portion detected as 7 glycoside after the reaction is complete [2]: ~100%
O=c1c(O)c(-c2ccc(O)cc2)oc2cc(O)cc(O)c12 [kaempferol] | – | 7.0 | –
O=c1cc(-c2ccc(O)c(O)c2)oc2cc(O)cc(O)c12 [luteolin] | can glycosilate | – | –
O=c1c(O)c(-c2cc(O)c(O)c(O)c2)oc2cc(O)cc(O)c12 [myricetin] | – | 4.4 | –
O=C1C[C@@H](c2ccc(O)cc2)Oc2cc(O)cc(O)c21 [naringenin] | very little effect; also recorded: no reaction occurred | – | –
O=c1c(O)c(-c2ccc(O)c(O)c2)oc2cc(O)cc(O)c12 [quercetin] | – | 6.5 | Km [4]: 15 µM; Vmax [4]: 18.9 nkatals/mg
cyanidins | – | 61 | Km [4]: 30 µM; Vmax [4]: 905 nkatals/mg
delphinidins | – | 100 | –
pelargonidins | – | 38 | –

Source: patent US6770747B1, “Genes encoding protein having activity of transferring sugar onto aurone” (Suntory Limited, priority 1999, dated 2004)
